Results reported in ChEMBL document CHEMBL1201862, “PubChem BioAssay data set” (2004).
Activity calls are given as the source filed them.

Columns and labels:
[1] = Shn3 3'UTR reporter inhibitors, dose response, cell-based, Clone20 osteoblasts, firefly luciferase, cherry-picked (AID 624132); type: functional;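 further: firefly luciferase luminescence from reporter carrying the Shn3 3'UTR in osteoblasts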
[2] = HepG2 cell cytotoxicity, dose response, cytotoxicity control for Shn3 inhibitor project, CellTiter-Glo, cherry-picked (AID 624134); type: functional, cell-based
[3] = target: T1, Carboxy-terminal domain RNA polymerase II polypeptide A small phosphatase 1 (Homo sapiens, UniProt Q9GZU7); experiment: inhibitors of CTDSP1, concentration-response testing, biochemical assay, absorbance-based, actives from ultra-high-throughput screening (AID 540297); type: functional
T1 sequence (Q9GZU7 whole entry): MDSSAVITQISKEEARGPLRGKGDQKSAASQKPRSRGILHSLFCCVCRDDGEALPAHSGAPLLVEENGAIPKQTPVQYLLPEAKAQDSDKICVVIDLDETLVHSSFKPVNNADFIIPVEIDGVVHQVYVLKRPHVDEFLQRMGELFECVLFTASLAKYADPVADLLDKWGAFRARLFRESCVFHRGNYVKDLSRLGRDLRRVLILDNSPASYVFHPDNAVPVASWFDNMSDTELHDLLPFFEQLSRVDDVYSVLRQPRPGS

Melanocortin receptor 4 = Melanocortin receptor 4 (Homo sapiens, UniProt P32245); type: functional, cell-based;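 further: Cell-based assay with luminescence read-out, confirmatory dose-response testing for agonist activity of biased ligands at MC4R; human U2OS cells with tagged receptor and beta-arrestin; potency of agonists that increase receptor coupling to beta-arrestin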
HEK293 = experiment: inhibitors of LMP1-driven NF-kB reporter, dose response, cell-based, HEK293, luciferase, cherry-pick (AID 588343); type: functional; conditions: Homo sapiens
[4] = target: T2, High affinity choline transporter 1 (Homo sapiens, UniProt Q9GZV3); experiment: CHT inhibitors, dose response, cell-based, 5-point CRC, membrane potential dye (AID 504840); type: functional
T2 sequence (Q9GZV3 whole entry): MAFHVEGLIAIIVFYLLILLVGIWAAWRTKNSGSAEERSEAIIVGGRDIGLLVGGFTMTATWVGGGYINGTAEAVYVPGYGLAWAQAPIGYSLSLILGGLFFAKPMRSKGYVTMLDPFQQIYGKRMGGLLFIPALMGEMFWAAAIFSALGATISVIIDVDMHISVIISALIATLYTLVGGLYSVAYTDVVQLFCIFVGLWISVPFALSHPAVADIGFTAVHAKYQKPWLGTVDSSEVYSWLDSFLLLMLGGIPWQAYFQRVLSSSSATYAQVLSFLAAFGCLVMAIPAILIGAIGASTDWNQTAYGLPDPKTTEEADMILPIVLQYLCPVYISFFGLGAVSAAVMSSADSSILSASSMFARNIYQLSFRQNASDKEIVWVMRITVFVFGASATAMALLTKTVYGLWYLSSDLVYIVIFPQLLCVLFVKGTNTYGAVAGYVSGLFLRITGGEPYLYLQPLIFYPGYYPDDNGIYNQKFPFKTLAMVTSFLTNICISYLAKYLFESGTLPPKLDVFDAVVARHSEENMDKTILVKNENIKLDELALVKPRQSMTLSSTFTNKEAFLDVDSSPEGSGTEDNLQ

[5] = target: Casein kinase I isoform alpha (Homo sapiens, UniProt P48729); type: functional
[6] = system: Streptococcus sp. 'group A'; experiment: growth inhibition of control SK(-) GAS strain, dose response, counter-screen for streptokinase expression inhibitor project, luminescence, kanamycin, BacTiterGlo, confirmation (AID 1900); type: functional, organism-based
[7] = target: T3, Calpain-2 catalytic subunit (Sus scrofa, UniProt P43367); experiment: pig calpain II inhibitor potency, dose response, biochemical, fluorogenic peptide substrate (AID 1420); type: functional
T3 sequence (P43367 whole entry): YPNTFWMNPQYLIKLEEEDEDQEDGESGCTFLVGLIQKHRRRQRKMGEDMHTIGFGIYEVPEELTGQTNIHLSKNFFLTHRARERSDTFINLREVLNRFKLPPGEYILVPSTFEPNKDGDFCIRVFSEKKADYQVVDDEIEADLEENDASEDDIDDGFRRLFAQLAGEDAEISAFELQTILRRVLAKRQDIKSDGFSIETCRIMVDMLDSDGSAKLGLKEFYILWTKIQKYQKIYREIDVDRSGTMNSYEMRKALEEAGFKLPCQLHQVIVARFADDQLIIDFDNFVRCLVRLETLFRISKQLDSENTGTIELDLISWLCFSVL

Streptococcus = experiment: Group A Streptococcus viability loss, dose response, counter-screen for streptokinase expression inhibitor project, luminescence, BacTiterGlo (AID 1915); type: functional, organism-based;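 further: potency for reduction of bacterial viability or growth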
Caspase-3 = target: T4, Caspase-3 (Homo sapiens, UniProt P42574); type: functional;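 further: Dose-response selectivity test against caspase-3 for candidate inhibitors of sentrin-specific proteases (SENPs)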
T4 sequence (P42574 whole entry): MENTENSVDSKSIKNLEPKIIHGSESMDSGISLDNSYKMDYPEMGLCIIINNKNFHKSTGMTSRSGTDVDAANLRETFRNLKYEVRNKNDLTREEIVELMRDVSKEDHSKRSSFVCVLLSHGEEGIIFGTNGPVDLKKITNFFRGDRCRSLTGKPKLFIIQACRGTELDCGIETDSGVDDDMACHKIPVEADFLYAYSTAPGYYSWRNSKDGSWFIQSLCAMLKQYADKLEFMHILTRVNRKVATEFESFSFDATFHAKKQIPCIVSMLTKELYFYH

[8] = target: T5, Sentrin-specific protease 7 (Homo sapiens, UniProt Q9BQF6); type: functional;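 further: Luminescence-based dose-response confirmation of ultra-high-throughput screening hits, measuring inhibition of SENP7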
T5 sequence (Q9BQF6 whole entry): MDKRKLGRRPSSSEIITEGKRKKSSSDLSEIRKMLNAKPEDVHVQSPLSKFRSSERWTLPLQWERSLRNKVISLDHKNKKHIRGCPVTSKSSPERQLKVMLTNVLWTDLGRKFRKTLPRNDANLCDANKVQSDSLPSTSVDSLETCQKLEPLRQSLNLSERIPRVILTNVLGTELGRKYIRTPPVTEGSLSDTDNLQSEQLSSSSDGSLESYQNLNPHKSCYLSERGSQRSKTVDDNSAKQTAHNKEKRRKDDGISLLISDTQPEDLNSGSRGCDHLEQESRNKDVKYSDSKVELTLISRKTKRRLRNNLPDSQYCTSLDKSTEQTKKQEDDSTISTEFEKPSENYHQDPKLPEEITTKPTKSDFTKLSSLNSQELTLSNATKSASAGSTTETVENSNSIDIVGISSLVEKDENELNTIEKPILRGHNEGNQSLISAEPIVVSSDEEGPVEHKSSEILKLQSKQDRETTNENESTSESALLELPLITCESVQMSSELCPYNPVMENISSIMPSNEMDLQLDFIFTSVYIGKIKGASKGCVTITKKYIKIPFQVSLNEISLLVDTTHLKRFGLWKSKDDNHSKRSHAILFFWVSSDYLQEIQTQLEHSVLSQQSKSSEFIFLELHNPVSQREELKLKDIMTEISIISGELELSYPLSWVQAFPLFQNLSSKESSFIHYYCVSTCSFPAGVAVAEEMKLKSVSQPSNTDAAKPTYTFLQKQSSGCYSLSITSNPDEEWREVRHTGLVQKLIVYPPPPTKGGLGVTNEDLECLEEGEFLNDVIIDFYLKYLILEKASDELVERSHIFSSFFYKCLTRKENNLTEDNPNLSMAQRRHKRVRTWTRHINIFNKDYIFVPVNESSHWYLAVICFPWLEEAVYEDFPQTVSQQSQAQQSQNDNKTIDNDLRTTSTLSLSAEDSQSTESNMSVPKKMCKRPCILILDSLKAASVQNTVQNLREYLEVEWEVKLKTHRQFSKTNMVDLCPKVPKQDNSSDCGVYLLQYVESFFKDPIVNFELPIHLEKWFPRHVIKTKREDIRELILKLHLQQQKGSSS

[9] = target: T6, Sentrin-specific protease 6 (Homo sapiens, UniProt Q9GZR1); type: functional;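 further: Luminescence-based dose-response confirmatory assay of SENP6 inhibition, following up an ultra-high-throughput screen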
T6 sequence (Q9GZR1 whole entry): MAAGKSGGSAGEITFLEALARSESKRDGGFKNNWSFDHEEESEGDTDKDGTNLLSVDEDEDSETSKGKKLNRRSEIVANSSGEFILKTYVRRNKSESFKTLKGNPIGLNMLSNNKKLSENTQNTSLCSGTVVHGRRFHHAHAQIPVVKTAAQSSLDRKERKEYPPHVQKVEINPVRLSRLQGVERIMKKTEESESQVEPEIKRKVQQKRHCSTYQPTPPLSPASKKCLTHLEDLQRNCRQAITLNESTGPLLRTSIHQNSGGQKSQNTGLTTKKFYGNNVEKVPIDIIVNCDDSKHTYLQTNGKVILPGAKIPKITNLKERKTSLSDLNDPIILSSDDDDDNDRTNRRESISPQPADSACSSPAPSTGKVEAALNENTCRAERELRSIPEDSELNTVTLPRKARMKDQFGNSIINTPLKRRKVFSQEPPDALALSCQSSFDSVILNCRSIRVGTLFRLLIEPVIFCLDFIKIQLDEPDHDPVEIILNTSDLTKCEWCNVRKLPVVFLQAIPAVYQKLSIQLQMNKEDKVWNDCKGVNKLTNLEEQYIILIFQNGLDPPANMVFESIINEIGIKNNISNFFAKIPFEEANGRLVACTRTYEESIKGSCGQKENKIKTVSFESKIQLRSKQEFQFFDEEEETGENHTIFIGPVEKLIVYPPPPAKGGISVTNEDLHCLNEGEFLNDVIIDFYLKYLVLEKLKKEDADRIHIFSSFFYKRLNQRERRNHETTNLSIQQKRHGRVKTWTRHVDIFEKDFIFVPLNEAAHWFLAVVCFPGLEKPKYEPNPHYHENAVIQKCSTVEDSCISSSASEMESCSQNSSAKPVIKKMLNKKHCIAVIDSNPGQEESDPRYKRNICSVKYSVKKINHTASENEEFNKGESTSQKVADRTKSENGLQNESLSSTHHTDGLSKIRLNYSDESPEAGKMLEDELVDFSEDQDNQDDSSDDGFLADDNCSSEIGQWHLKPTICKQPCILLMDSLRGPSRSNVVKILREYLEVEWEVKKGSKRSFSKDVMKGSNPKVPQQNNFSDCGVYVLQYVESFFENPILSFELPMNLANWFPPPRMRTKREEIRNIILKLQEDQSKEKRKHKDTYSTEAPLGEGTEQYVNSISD

[10] = target: T7, Sentrin-specific protease 8 (Homo sapiens, UniProt Q96LD8); type: functional;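 further: luminescence read-out of SENP8 inhibition, dose-response confirmation following an ultra-high-throughput screen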
T7 sequence (Q96LD8 whole entry): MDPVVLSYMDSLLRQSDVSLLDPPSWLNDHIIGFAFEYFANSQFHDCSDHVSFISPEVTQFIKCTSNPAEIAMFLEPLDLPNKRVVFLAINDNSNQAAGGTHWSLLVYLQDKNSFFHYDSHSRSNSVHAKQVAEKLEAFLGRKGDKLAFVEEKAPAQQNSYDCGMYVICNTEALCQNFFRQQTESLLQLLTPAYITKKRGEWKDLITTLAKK

Sequence of Melanocortin receptor 4 (P32245 whole entry): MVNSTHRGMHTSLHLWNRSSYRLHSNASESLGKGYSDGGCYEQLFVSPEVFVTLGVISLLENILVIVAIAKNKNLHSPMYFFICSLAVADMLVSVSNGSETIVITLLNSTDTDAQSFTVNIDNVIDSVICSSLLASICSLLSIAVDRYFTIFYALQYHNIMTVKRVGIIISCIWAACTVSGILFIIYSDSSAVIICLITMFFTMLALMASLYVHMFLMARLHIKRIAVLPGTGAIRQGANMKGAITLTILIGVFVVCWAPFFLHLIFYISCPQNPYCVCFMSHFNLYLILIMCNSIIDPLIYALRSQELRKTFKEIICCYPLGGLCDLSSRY
Sequence of Casein kinase I isoform alpha (P48729 whole entry, canonical isoform): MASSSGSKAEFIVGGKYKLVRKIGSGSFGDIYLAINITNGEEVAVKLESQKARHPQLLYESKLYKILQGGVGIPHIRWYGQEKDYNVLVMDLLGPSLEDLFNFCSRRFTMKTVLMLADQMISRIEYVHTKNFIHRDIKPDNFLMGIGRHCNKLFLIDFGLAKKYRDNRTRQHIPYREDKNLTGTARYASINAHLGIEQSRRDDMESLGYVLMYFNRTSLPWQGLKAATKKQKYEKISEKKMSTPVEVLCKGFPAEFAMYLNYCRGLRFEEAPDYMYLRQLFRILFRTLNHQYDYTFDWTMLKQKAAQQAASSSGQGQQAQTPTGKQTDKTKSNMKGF

Compound: Cc1ccccc1NC(=O)CSc1nc2ccccc2c(=O)n1C
- AC50 [1]: 7.64 µM (active)
- AC50 [2]: 59.6 µM (active)

Compound: COc1cccc(C2c3c(-c4ccccc4)n[nH]c3C(=O)N2c2ccc(C(=O)O)cc2)c1 (stereo not given)
- IC50 [3]: 5.63 µM (active)

Compound: CC(=O)Nc1cc(-c2ccccc2)cn2c(-c3ccc(F)c(Cl)c3)cnc12
- EC50 (Melanocortin receptor 4): > 89.2 µM (inactive)

Compound: C[C@@H]1CN([C@@H](C)CO)S(=O)(=O)c2ccc(/C=C/c3ccccc3)cc2O[C@@H]1CN(C)Cc1ccc(C(=O)O)cc1
- AC50 (HEK293): 35.4 µM (active)

Compound: CC1(C)CC(=O)C=C(Nc2cccc(Cl)c2Cl)C1
- IC50 [4]: 3.16 µM (active)

Compound: N#Cc1cnc(Cl)nc1N
- Ki [5]: 100 µM (active)

Compound: COc1cc(O)c(CC=C(C)C)c(O)c1C(=O)CCc1ccc(O)cc1 [DIHYDROXANTHOHUMOL]
- EC50 [6]: 2.79 µM (active)
- IC50 [7]: 5 µM (not active)
- EC50 (Streptococcus): 3.05 µM (active)
- IC50 (Caspase-3): > 100 µM (inactive)
- IC50 [8]: 7.82 µM (active)
- IC50 [9]: 10 µM (active)
- IC50 [10]: 13.3 µM (active)
- EC50 (Melanocortin receptor 4): > 89.2 µM (inactive)
